PubChem BioAssay AID977614 (Broad Institute, 2014)
Active and inactive are the calls of the source.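 How the source made its calls: active means parasite count per well reduced by over 3 SD from the mean, with host cell number above 80% of untreated; inactive means the rest.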

System: L. donovani amastigotes in THP-1 macrophages, DAPI imaging, 72 h
Assay: antileishmanial activity in infected macrophages – imaging, THP-1 host macrophages, single concentration (AID 977614);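 further: signal is the parasite per host cell ratio from DAPI stained kinetoplasts and nuclei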

With O=C(Nc1ccc(F)cc1)N1C[C@@H]2[C@H](c3ccccc31)[C@@H](CO)N2Cc1ccccc1Cl the AC50 was > 10 µM (inactive).

With C[C@H]1CN([C@@H](C)CO)C(=O)CCCn2nncc2CO[C@@H]1CN(C)Cc1cccc(C(F)(F)F)c1 the AC50 was > 10 µM (inactive).

For C/C=C/c1ccc([C@@H]2[C@H](CO)N(C(C)=O)[C@H]2CN(CC)C(=O)CN(C)C)cc1, the AC50 was > 10 µM (inactive).

C/C=C/c1ccc([C@H]2[C@H](CO)N(C(C)=O)[C@H]2CN(CC)C(=O)CN(C)C)cc1 was tested, and the AC50 was > 10 µM (inactive).

In the case of O=S(=O)(c1ccc(F)cc1)N1C[C@H]2[C@@H](c3ccccc31)[C@H](CO)N2Cc1ccccc1Cl, the AC50 was > 10 µM (inactive).

C/C=C/c1ccc([C@H]2[C@@H](CNC(=O)CC3CC3)N(C(=O)CC)[C@H]2CO)cc1 was tested, and the AC50 was > 10 µM (inactive).

C/C=C/c1ccc([C@H]2[C@H](CO)N(C(C)=O)[C@H]2CNC(=O)c2ccccc2)cc1 was tested, and the AC50 was > 10 µM (inactive).

With O=C(Nc1cccc(Cl)c1)N1C[C@H]2[C@@H](c3ccccc31)[C@H](CO)N2Cc1cccnc1 the AC50 was > 10 µM (inactive).

C[C@H]1CN([C@@H](C)CO)C(=O)CCCn2cc(nn2)CO[C@H]1CN(C)C(=O)CCC(F)(F)F was tested, and the AC50 was > 10 µM (inactive).

In the case of CCCC#Cc1ccc([C@H]2[C@@H](CO)N[C@@H]2CN(C(C)=O)C2CCCC2)cc1, the AC50 was > 10 µM (inactive).

COc1ccc(CN2[C@H](CO)[C@@H]3c4ccccc4N(C(=O)NC(C)C)C[C@@H]32)cc1 was tested, and the AC50 was > 10 µM (inactive).

For CC(=O)N1[C@@H](CO)[C@@H](c2ccccc2)[C@@H]1CNC(=O)CN1CCOCC1, the AC50 was > 10 µM (inactive).

Cc1ccc(S(=O)(=O)N2C[C@H]3[C@@H](c4ccccc42)[C@H](CO)N3Cc2cccnc2)cc1 was tested, and the AC50 was > 10 µM (inactive).

With CC(=O)NC[C@@H]1[C@@H](c2ccc(-c3cccnc3)cc2)[C@@H](CO)N1C(=O)CC1CC1 the AC50 was > 10 µM (inactive).

In the case of CNC[C@@H]1OCc2cnnn2CCCC(=O)N([C@@H](C)CO)C[C@@H]1C, the AC50 was > 10 µM (inactive).

With OC[C@@H]1[C@H]2c3ccccc3NC[C@H]2N1CC1CCOCC1 the AC50 was > 10 µM (inactive).

In the case of C[C@@H]1CN([C@@H](C)CO)C(=O)CCCn2cc(nn2)CO[C@@H]1CN(C)C(=O)CCC(F)(F)F, the AC50 was > 10 µM (inactive).

For COCCN(C[C@H]1[C@H](c2ccccc2)[C@@H](CO)N1C(C)=O)C(=O)c1cccnc1, the AC50 was > 10 µM (inactive).

C[C@H](CO)N1C[C@H](C)[C@H](CN(C)C(=O)CCC(F)(F)F)OCc2cn(nn2)CCCC1=O was tested, and the AC50 was > 10 µM (inactive).

In the case of COc1ccc(CN2[C@H](CO)[C@H]3c4ccccc4N(C(=O)NC(C)C)C[C@H]32)cc1, the AC50 was > 10 µM (inactive).

With CC(=O)N1[C@H](CO)[C@H](c2ccccc2)[C@@H]1CN(CC(C)C)C(=O)c1ccccn1 the AC50 was > 10 µM (inactive).

O=S(=O)(NC[C@H]1[C@@H](c2ccccc2)[C@H](CO)N1CC1CC1)c1ccccc1 was tested, and the AC50 was > 10 µM (inactive).

CC(C)N(C[C@H]1[C@@H](c2ccccc2)[C@H](CO)N1S(C)(=O)=O)C(=O)CN(C)C was tested, and the AC50 was > 10 µM (inactive).

O=C(c1ccncc1)N1C[C@H]2[C@@H](c3ccccc31)[C@H](CO)N2Cc1ccccc1F was tested, and the AC50 was > 10 µM (inactive).

For CN1C[C@H]2[C@@H](c3ccccc31)[C@@H](CO)N2S(=O)(=O)c1ccccc1, the AC50 was > 10 µM (inactive).

O=C(CN1CCOCC1)N(CC1CCC1)C[C@H]1N[C@H](CO)[C@@H]1c1ccccc1 was tested, and the AC50 was > 10 µM (inactive).

O=C(CC1CC1)N1[C@@H](CO)[C@@H]2c3ccccc3N(S(=O)(=O)c3ccccc3F)C[C@@H]21 was tested, and the AC50 was > 10 µM (inactive).

For C[C@H]1CN([C@@H](C)CO)C(=O)CCCn2cc(nn2)CO[C@@H]1CN(C)C(=O)Nc1ccc2c(c1)OCO2, the AC50 was > 10 µM (inactive).

With COCC(=O)N1[C@@H](CO)[C@@H]2c3ccccc3N(C)C[C@@H]21 the AC50 was > 10 µM (inactive).

For CN1[C@@H](CO)[C@@H]2c3ccccc3NC[C@@H]21, the AC50 was > 10 µM (inactive).

O=C(NC[C@H]1[C@@H](c2ccccc2)[C@H](CO)N1Cc1cccnc1)c1ccccn1 was tested, and the AC50 was > 10 µM (inactive).

With CCC(=O)N1[C@H](CN(CC)C(=O)c2cccc(F)c2)[C@@H](c2ccccc2)[C@@H]1CO the AC50 was > 10 µM (inactive).

In the case of C[C@@H]1CN([C@@H](C)CO)C(=O)CCCn2nncc2CO[C@H]1CN(C)CC1CCCCC1, the AC50 was > 10 µM (inactive).

With COCC(=O)N1[C@@H]2CN(C(=O)c3cccnc3)c3ccccc3[C@@H]2[C@@H]1CO the AC50 was > 10 µM (inactive).

C[C@@H]1CN([C@H](C)CO)C(=O)CCCn2nncc2CO[C@H]1CN(C)C(=O)Nc1ccnc(N2CCOCC2)c1 was tested, and the AC50 was > 10 µM (inactive).

With O=C(c1ccncc1)N1C[C@H]2[C@@H](c3ccccc31)[C@@H](CO)N2Cc1ccccc1F the AC50 was > 10 µM (inactive).

For Cc1noc(C)c1NC(=O)N(C)C[C@H]1OCc2cn(nn2)CCCC(=O)N([C@H](C)CO)C[C@@H]1C, the AC50 was > 10 µM (inactive).

With COc1ccccc1CN1[C@@H]2CN(C(=O)C3CCOCC3)c3ccccc3[C@@H]2[C@@H]1CO the AC50 was > 10 µM (inactive).

With O=C(Nc1cccc(Cl)c1)N1C[C@@H]2[C@H](c3ccccc31)[C@H](CO)N2Cc1cccnc1 the AC50 was > 10 µM (inactive).

In the case of COc1ccccc1CN1[C@H](CO)[C@H]2c3ccccc3N(C(=O)C3CCOCC3)C[C@H]21, the AC50 was > 10 µM (inactive).

For O=S(=O)(NC[C@H]1[C@H](c2ccccc2)[C@@H](CO)N1CC1CC1)c1ccccc1, the AC50 was > 10 µM (inactive).

For CCC(=O)N1[C@H](CO)[C@@H]2c3ccccc3N(S(=O)(=O)c3ccc(F)cc3)C[C@@H]21, the AC50 was > 10 µM (inactive).

C[C@H](CO)N1C[C@H](C)[C@H](CN(C)S(=O)(=O)c2cccc(C#N)c2)OCc2cn(nn2)CCCC1=O was tested, and the AC50 was > 10 µM (inactive).

In the case of CC(=O)N1[C@H](CO)[C@H](c2ccccc2)[C@H]1CN(C(=O)c1ccccc1F)C(C)C, the AC50 was > 10 µM (inactive).

In the case of C[C@@H]1CN([C@H](C)CO)C(=O)CCCn2nncc2CO[C@H]1CN(C)Cc1cccc2c1OCCCO2, the AC50 was > 10 µM (inactive).

For C[C@@H]1CN([C@H](C)CO)C(=O)CCCn2nncc2CO[C@@H]1CN(C)C(=O)c1ccc2ccn(C)c2c1, the AC50 was > 10 µM (inactive).

In the case of CN1[C@H](CO)[C@H]2c3ccccc3N(C(=O)Nc3cc(F)ccc3F)C[C@H]21, the AC50 was > 10 µM (inactive).

With CC(=O)N1[C@H](CN(CC2CCC2)C(=O)CN(C)C)[C@@H](c2ccccc2)[C@@H]1CO the AC50 was > 10 µM (inactive).

With O=C(c1ccc2c(c1)OCO2)N1C[C@H]2[C@@H](c3ccccc31)[C@@H](CO)N2Cc1cccnc1 the AC50 was > 10 µM (inactive).

In the case of Cc1cccc(S(=O)(=O)N2C[C@@H]3[C@H](c4ccccc42)[C@H](CO)N3CC2CCCC2)c1, the AC50 was > 10 µM (inactive).

CCN(C[C@@H]1[C@@H](c2ccc(-c3cccnc3)cc2)[C@H](CO)N1C(C)=O)C(C)=O was tested, and the AC50 was > 10 µM (inactive).

For C[C@H](CO)N1C[C@H](C)[C@@H](CN(C)Cc2ccc3c(c2)OCCN3C)OCc2cnnn2CCCC1=O, the AC50 was > 10 µM (inactive).

CC(=O)N1[C@H](CN(CC(C)C)C(=O)c2ccccn2)[C@H](c2ccccc2)[C@@H]1CO was tested, and the AC50 was > 10 µM (inactive).

With COc1cccc(C(=O)N2C[C@H]3[C@@H](c4ccccc42)[C@@H](CO)N3C(=O)c2cccc(F)c2)c1 the AC50 was > 10 µM (inactive).

In the case of COCC(=O)N1[C@@H]2CN(C)c3ccccc3[C@@H]2[C@@H]1CO, the AC50 was > 10 µM (inactive).

For CC(=O)N1[C@H](CO)[C@@H](c2ccccc2)[C@H]1CNC(=O)CN1CCOCC1, the AC50 was > 10 µM (inactive).

For C[C@H]1CN([C@@H](C)CO)C(=O)CCCn2nncc2CO[C@H]1CN(C)Cc1ccc2cccnc2c1, the AC50 was > 10 µM (inactive).

With C[C@@H]1CN([C@H](C)CO)C(=O)CCCn2nncc2CO[C@@H]1CN(C)S(=O)(=O)c1cn(C)cn1 the AC50 was > 10 µM (inactive).

In the case of O=C(C1CC1)N1C[C@H]2[C@@H](c3ccccc31)[C@H](CO)N2C(=O)c1ccccc1, the AC50 was > 10 µM (inactive).

C[C@@H]1CN([C@@H](C)CO)C(=O)CCCn2nncc2CO[C@@H]1CN(C)C(=O)Oc1cccc2ccccc12 was tested, and the AC50 was > 10 µM (inactive).

In the case of COCC(=O)NC[C@@H]1[C@H](c2ccccc2)[C@H](CO)N1C(=O)c1ccccc1, the AC50 was > 10 µM (inactive).

In the case of C[C@@H]1CN([C@@H](C)CO)C(=O)CCCn2nncc2CO[C@H]1CN(C)C(=O)c1ccc2ccn(C)c2c1, the AC50 was > 10 µM (inactive).

For O=C(C1CCOCC1)N1C[C@H]2[C@@H](c3ccccc31)[C@H](CO)N2C(=O)Nc1ccccc1F, the AC50 was > 10 µM (inactive).

Cc1noc(C)c1S(=O)(=O)N(C)C[C@H]1OCc2cnnn2CCCC(=O)N([C@@H](C)CO)C[C@H]1C was tested, and the AC50 was > 10 µM (inactive).

For COCC(=O)N1[C@H](CO)[C@H](c2ccc(C#CC(C)C)cc2)[C@@H]1CNC(C)=O, the AC50 was > 10 µM (inactive).

With CCC(=O)N1[C@H](CO)[C@H](c2ccc(C3=CCCC3)cc2)[C@@H]1CNC1CCCCC1 the AC50 was > 10 µM (inactive).

For C[C@H](CO)N1C[C@H](C)[C@@H](CN(C)C(=O)Nc2ccccc2C(F)(F)F)OCc2cnnn2CCCC1=O, the AC50 was > 10 µM (inactive).

C[C@H](CO)N1C[C@H](C)[C@@H](CN(C)C(=O)NC2CCCCC2)OCc2cn(nn2)CCCC1=O was tested, and the AC50 was > 10 µM (inactive).

In the case of O=C(Cc1ccccn1)N1[C@H](CO)[C@@H]2c3ccccc3NC[C@@H]21, the AC50 was > 10 µM (inactive).

CCN(C[C@H]1[C@H](c2ccccc2)[C@@H](CO)N1S(C)(=O)=O)C(=O)C1CCCC1 was tested, and the AC50 was > 10 µM (inactive).

In the case of CCNC[C@@H]1[C@H](c2ccccc2)[C@H](CO)N1C(=O)Cc1ccccn1, the AC50 was > 10 µM (inactive).

In the case of O=C(c1ccncc1)N1C[C@H]2[C@@H](c3ccccc31)[C@@H](CO)N2C(=O)CN1CCOCC1, the AC50 was > 10 µM (inactive).

C[C@H]1CN([C@@H](C)CO)C(=O)CCCn2nncc2CO[C@@H]1CN(C)S(=O)(=O)c1ccc2c(c1)OCCCO2 was tested, and the AC50 was > 10 µM (inactive).

With CN1C[C@@H]2[C@H](c3ccccc31)[C@H](CO)N2C(=O)C1CCOCC1 the AC50 was > 10 µM (inactive).

For O=C(c1ccccn1)N1C[C@H]2[C@@H](c3ccccc31)[C@H](CO)N2C(=O)Nc1ccccc1Cl, the AC50 was > 10 µM (inactive).

In the case of C[C@H]1CN([C@@H](C)CO)C(=O)CCCn2nncc2CO[C@H]1CN(C)C(=O)Oc1cccc2ccccc12, the AC50 was > 10 µM (inactive).

In the case of O=C(C1CCOCC1)N1C[C@@H]2[C@H](c3ccccc31)[C@@H](CO)N2C(=O)Nc1ccccc1F, the AC50 was > 10 µM (inactive).
